# Measurements reported in paper PMC12024912, “Druggability Studies of Benzene Sulfonamide Substituted Diarylamide (E3) as a Novel Diuretic” (Biomedicines, 2025).
# Biological target: T1, rat UT-A1 (Rattus norvegicus, UniProt Q62668)
# T1 construct: expressed in transfected cells
# T1 sequence (Q62668 1-929): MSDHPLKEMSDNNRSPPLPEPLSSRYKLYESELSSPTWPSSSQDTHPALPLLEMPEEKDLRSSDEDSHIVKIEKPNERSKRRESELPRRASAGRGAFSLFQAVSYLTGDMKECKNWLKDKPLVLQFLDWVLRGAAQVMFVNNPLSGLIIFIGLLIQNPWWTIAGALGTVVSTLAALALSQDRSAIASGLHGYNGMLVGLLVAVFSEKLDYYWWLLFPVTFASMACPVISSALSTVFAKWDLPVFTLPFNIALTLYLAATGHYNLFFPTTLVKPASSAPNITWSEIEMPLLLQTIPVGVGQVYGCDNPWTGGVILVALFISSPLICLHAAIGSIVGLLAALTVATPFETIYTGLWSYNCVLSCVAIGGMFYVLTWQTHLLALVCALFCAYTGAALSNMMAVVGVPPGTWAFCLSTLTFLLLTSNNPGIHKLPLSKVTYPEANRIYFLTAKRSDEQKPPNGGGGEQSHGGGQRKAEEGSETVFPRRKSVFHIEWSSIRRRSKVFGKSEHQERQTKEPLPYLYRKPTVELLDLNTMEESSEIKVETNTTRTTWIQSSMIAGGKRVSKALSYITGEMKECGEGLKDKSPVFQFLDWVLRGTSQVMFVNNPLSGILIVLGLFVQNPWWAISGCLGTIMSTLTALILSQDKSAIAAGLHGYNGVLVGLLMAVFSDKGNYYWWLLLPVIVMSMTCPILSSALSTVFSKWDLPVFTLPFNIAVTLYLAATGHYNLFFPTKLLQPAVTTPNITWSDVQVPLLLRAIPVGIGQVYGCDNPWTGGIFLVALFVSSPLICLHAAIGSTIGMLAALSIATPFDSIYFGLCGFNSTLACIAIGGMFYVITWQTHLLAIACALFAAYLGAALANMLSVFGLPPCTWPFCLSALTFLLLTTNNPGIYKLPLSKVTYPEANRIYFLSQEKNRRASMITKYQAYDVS
# Assay: Transwell assay of UT-A1 inhibition in UT-A1-MDCK cells
# Format: cell-based
# Settings: read-out: IC50 against UT-A1-mediated urea permeability
# Procedure: MDCK cells stably expressing rat UT-A1 or UT-B were cultured in DMEM supplemented with 10% FBS, and the mRNA levels of UT-A1 and UT-B were measured in our previous research. Urea flux was assessed according to previously established methods. MDCK cells (2 × 10^5 cells/cm^2) were grown on 12 mm collagen-coated Costar Transwell inserts (0.4 μm pore size, Corning) for 4 d at 37 °C in the presence of 5% CO2. Once the cells on the apical side formed a tight monolayer (transepithelial resistance 1 kΩ/cm^2), PBS (pH = 7.4, containing 10 μmol/L forskolin) with E3 or DMSO was added to the top (0.25 mL) and bottom (1 mL) compartments, and the cultures were incubated in the absence of urea for 30 min at 37 °C. As UT-B is located in the plasma membrane while UT-A1 resides in the cytoplasm, forskolin was used to stimulate the translocation of UT-A1 from the cytoplasm to the membrane for urea transport. Subsequently, the solution in the bottom compartment was replaced with PBS (pH 7.4, containing 10 μmol/L forskolin and E3 or DMSO) supplemented with 15 mmol/L urea. Apical fluid samples (5 μL) were collected at 0, 1, 3, 5, 10, 15, 20, 30, 40, 50, and 60 min. The samples were subjected to an assay for urea (Urea Colorimetric Assay Kit (Diacetyl Oxime Method), Elabscience, Wuhan, China) according to the kit procedure. Then, the inhibition rate was calculated as described previously.
structure (smiles),measurement,value
"CC(=O)c1ccc(C(=O)Nc2cccc(NS(=O)(=O)c3ccccc3)c2)o1 [Compound E3, 5-acetyl-N-(3-(phenylsulfonamido)phenyl)furan-2-carboxamide]",IC50,18 nM
